Laboratory results from patent publication US20250092066A1, “SUBSTITUTED BICYCLIC HETEROCYCLES AS MALT-1 INHIBITORS” (AURIGENE ONCOLOGY LIMITED, priority 2022, published 2025).

Molecular target: MALT-1 (Isoform1) (Homo sapiens (Human), UniProt Q9UDY8)
Assay: Biochemical fluorescent assay of MALT-1 (Isoform1) enzyme inhibition
Conditions: recombinant MALT-1 (Isoform1); for inhibition at 1 µM / Percent Inhibition (@ 1 μM): compound at 1 μM; for inhibition at 1 µM: read-out: Percent Inhibition (@ 1 μM); for IC50: 50 μM AC-LRSR-MAC substrate, 240 min
Experimental: The potency of compounds to inhibit MALT-1 (Isoform1) enzyme was tested in a Fluorescent assay using recombinant MALT-1 (Isoform1, aa-840) generated in-house. The assay buffer was 50 mM HEPES (pH 7.5), 100 mM NaCl, 10 mM DTT, 1 mM EDTA, 0.9 M sodium citrate, 0.01% CHAPS. 1.5 nM of MALT-1 enzyme was incubated with various concentrations of test compounds ([…]) (1% DMSO) in the presence of buffer for 30 minutes at 30° C. The protease reaction was initiated by adding 50 μM of AC-LRSR-MAC (Peptide International, USA) substrate and incubated for 240 min. After 240 min incubation, fluorescence emission of the samples at 460 nm was measured at an excitation of 355 nm. The percent inhibition was calculated using the following formula: […]. IC50 values were determined by fitting the dose-response data to sigmoidal curve fitting equation using Graph pad prism software VS.

MALT-1 (Isoform1), sequence (Q9UDY8 whole entry, canonical isoform): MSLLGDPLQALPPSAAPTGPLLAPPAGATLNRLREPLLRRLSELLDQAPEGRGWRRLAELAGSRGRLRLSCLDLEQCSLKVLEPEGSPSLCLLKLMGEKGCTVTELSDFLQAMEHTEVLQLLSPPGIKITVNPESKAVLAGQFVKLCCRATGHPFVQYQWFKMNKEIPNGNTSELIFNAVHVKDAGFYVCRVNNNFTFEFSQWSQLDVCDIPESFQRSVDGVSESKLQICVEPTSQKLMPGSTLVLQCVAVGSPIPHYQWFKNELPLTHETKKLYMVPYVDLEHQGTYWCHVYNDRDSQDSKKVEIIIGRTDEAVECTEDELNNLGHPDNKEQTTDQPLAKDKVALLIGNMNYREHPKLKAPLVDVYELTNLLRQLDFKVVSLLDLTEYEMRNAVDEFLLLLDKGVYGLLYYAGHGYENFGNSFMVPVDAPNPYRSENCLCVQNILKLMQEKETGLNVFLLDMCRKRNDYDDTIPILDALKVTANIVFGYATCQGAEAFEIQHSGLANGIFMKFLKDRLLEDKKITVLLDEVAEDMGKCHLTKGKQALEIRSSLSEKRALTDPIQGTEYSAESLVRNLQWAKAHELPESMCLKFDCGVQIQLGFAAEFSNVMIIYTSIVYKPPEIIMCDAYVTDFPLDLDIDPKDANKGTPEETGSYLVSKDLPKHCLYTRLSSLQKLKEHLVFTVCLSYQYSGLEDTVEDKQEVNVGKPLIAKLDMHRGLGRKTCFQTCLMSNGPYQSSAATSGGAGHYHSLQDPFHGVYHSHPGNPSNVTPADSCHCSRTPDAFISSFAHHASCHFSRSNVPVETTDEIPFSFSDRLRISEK

inhibition at 1 µM	IC50	Percent Inhibition (@ 1 μM)	Compound
100%	< 50 nM	–	COC(c1c(NC(=O)Nc2cc(F)c3nc(C)nn3c2)cnc2cc(Cl)nn12)C(C)C (racemic) [Example 31, 1-(2-chloro-7-(1-methoxy-2-methylpropyl)pyrazolo[1,5-a]pyrimidin-6-yl)-3-(8-fluoro-2-methyl-[1,2,4]triazolo[1,5-a]pyridin-6-yl)urea]
100%	< 50 nM	–	COC(c1c(NC(=O)Nc2cc(F)c3nc(C)nn3c2)cnc2cc(Cl)nn12)C1CC1 (racemic) [Example 32, 1-(2-chloro-7-(cyclopropyl(methoxy)methyl)pyrazolo[1,5-a]pyrimidin-6-yl)-3-(8-fluoro-2-methyl-[1,2,4]triazolo[1,5-a]pyridin-6-yl)urea]
98%	< 50 nM	–	CCC(OC)c1c(NC(=O)Nc2cc(F)c3nc(C)nn3c2)cnc2cc(Cl)nn12 (racemic) [Example 33, 1-(2-chloro-7-(1-methoxypropyl)pyrazolo[1,5-a]pyrimidin-6-yl)-3-(8-fluoro-2-methyl-[1,2,4]triazolo[1,5-a]pyridin-6-yl)urea]
71%	> 250 nM	–	COC(C)c1c(NC(=O)Nc2cc(Cl)c3ncnn3c2)cnc(C)c1Br (racemic) [Example 34, 1-(5-bromo-4-(1-methoxyethyl)-6-methylpyridin-3-yl)-3-(8-chloro-[1,2,4]triazolo[1,5-a]pyridin-6-yl)urea]
72%	> 250 nM	–	COC(C)c1c(NC(=O)Nc2cc(Cl)c3nc(C)nn3c2)cnc(C)c1Br (racemic) [Example 35, 1-(5-bromo-4-(1-methoxyethyl)-6-methylpyridin-3-yl)-3-(8-chloro-2-methyl-[1,2,4]triazolo[1,5-a]pyridin-6-yl)urea]
100%	< 50 nM	–	COC(c1c(NC(=O)Nc2cc(F)c3nc(C)nn3c2)cnc2cc(Cl)nn12)C(C)C (single isomer, unassigned) [Example 31a, 1-(2-chloro-7-(1-methoxy-2-methylpropyl)pyrazolo[1,5-a]pyrimidin-6-yl)-3-(8-fluoro-2-methyl-[1,2,4]triazolo[1,5-a]pyridin-6-yl)urea]
–	< 50 nM	99%	COC(c1c(NC(=O)Nc2cc(F)c3nc(C)nn3c2)cnc2cc(Cl)nn12)C(C)C (single isomer, unassigned) [Example 31b, 1-(2-chloro-7-(1-methoxy-2-methylpropyl)pyrazolo[1,5-a]pyrimidin-6-yl)-3-(8-fluoro-2-methyl-[1,2,4]triazolo[1,5-a]pyridin-6-yl)urea]
96%	51 to 250 nM	–	COC(c1c(NC(=O)Nc2cc(F)c3nc(C)nn3c2)cnc2cc(Cl)nn12)C1CC1 (single isomer, unassigned) [Example 32a, 1-(2-chloro-7-(cyclopropyl(methoxy)methyl)pyrazolo[1,5-a]pyrimidin-6-yl)-3-(8-fluoro-2-methyl-[1,2,4]triazolo[1,5-a]pyridin-6-yl)urea]
–	< 50 nM	99%	COC(c1c(NC(=O)Nc2cc(F)c3nc(C)nn3c2)cnc2cc(Cl)nn12)C1CC1 (single isomer, unassigned) [Example 32b, 1-(2-chloro-7-(cyclopropyl(methoxy)methyl)pyrazolo[1,5-a]pyrimidin-6-yl)-3-(8-fluoro-2-methyl-[1,2,4]triazolo[1,5-a]pyridin-6-yl)urea]
99%	< 50 nM	–	CCC(OC)c1c(NC(=O)Nc2cc(F)c3nc(C)nn3c2)cnc2cc(Cl)nn12 (single isomer, unassigned) [Example 33a, 1-(2-chloro-7-(1-methoxypropyl)pyrazolo[1,5-a]pyrimidin-6-yl)-3-(8-fluoro-2-methyl-[1,2,4]triazolo[1,5-a]pyridin-6-yl)urea]
–	51 to 250 nM	96%	CCC(OC)c1c(NC(=O)Nc2cc(F)c3nc(C)nn3c2)cnc2cc(Cl)nn12 (single isomer, unassigned) [Example 33b, 1-(2-chloro-7-(1-methoxypropyl)pyrazolo[1,5-a]pyrimidin-6-yl)-3-(8-fluoro-2-methyl-[1,2,4]triazolo[1,5-a]pyridin-6-yl)urea]
79%	51 to 250 nM	–	COC(C)c1c(NC(=O)Nc2cc(Cl)c3ncnn3c2)cnc(C)c1Br (single isomer, unassigned) [Example 34a, 1-(5-bromo-4-(1-methoxyethyl)-6-methylpyridin-3-yl)-3-(8-chloro-[1,2,4]triazolo[1,5-a]pyridin-6-yl)urea]
–	51 to 250 nM	88%	COC(C)c1c(NC(=O)Nc2cc(Cl)c3nc(C)nn3c2)cnc(C)c1Br (single isomer, unassigned) [Example 35a, 1-(5-bromo-4-(1-methoxyethyl)-6-methylpyridin-3-yl)-3-(8-chloro-2-methyl-[1,2,4]triazolo[1,5-a]pyridin-6-yl)urea]
–	> 250 nM	8%	COC(C)c1c(NC(=O)Nc2cc(Cl)c3nc(C)nn3c2)cnc(C)c1Br (single isomer, unassigned) [Example 35b, 1-(5-bromo-4-(1-methoxyethyl)-6-methylpyridin-3-yl)-3-(8-chloro-2-methyl-[1,2,4]triazolo[1,5-a]pyridin-6-yl)urea]
97%	< 50 nM	–	CO[C@@H](C)c1c(NC(=O)Nc2cc(Cl)c3ncnn3c2)cnc2cc(Cl)nn12 [Example 2]
96%	< 50 nM	–	CO[C@@H](C)c1c(NC(=O)Nc2cc(Br)c3ncnn3c2)cnc2cc(Cl)nn12 [Example 3]
94%	51 to 250 nM	–	CO[C@@H](C)c1c(NC(=O)Nc2cc(C(F)(F)F)c3ncnn3c2)cnc2cc(Cl)nn12 [Example 4]
98%	< 50 nM	–	CO[C@@H](C)c1c(NC(=O)Nc2cc(Cl)c3nc(C)nn3c2)cnc2cc(Cl)nn12 [Example 5]
97%	< 50 nM	–	CO[C@@H](C)c1c(NC(=O)Nc2cc(Cl)c3nc(C4CC4)nn3c2)cnc2cc(Cl)nn12 [Example 6]
96%	< 50 nM	–	CO[C@@H](C)c1c(NC(=O)Nc2cc(Cl)c3nc(C(C)C)nn3c2)cnc2cc(Cl)nn12 [Example 7]

inhibition at 1 µM	IC50	Percent Inhibition (@ 1 μM)	Compound
94%	< 50 nM	–	CO[C@@H](C)c1c(NC(=O)Nc2cc(Cl)c3nc(C(F)(F)F)nn3c2)cnc2cc(Cl)nn12 [Example 8]
92%	< 50 nM	–	CO[C@@H](C)c1c(NC(=O)Nc2cc(F)c3nc(C)nn3c2)cnc2cc(Cl)nn12 [Example 9]
38%	> 250 nM	–	COc1cc(NC(=O)Nc2cnc3cc(Cl)nn3c2[C@H](C)OC)cn2nc(C)nc12 [Example 10]
98%	< 50 nM	–	CO[C@@H](C)c1c(NC(=O)Nc2cc(C(F)(F)F)c3nc(C)nn3c2)cnc2cc(Cl)nn12 [Example 11]
81%	51 to 250 nM	–	Cc1nc2c(F)cc(NC(=O)Nc3cnc4cc(Cl)nn4c3C3CCCO3)cn2n1 (centres unmarked) [Example 12]
84%	51 to 250 nM	–	CO[C@@H](C)c1c(NC(=O)Nc2cc(F)c3nc(CO)nn3c2)cnc2cc(Cl)nn12 [Example 13]
99%	< 50 nM	–	CO[C@@H](C)c1c(NC(=O)Nc2cc(C#N)c3nc(C)nn3c2)cnc2cc(Cl)nn12 [Example 14]
79%	51 to 250 nM	–	Cc1nc2c(F)cc(NC(=O)Nc3cnc4cc(Cl)nn4c3C3CC3)cn2n1 [Example 15]
90%	< 50 nM	–	Cc1nc2c(F)cc(NC(=O)Nc3cnc4cc(Cl)nn4c3C(C)C)cn2n1 [Example 16]
82%	< 50 nM	–	COCc1nc2c(F)cc(NC(=O)Nc3cnc4cc(Cl)nn4c3[C@H](C)OC)cn2n1 [Example 17]
98%	< 50 nM	–	CO[C@@H](C)c1c(NC(=O)Nc2cc(C#N)c3ncnn3c2)cnc2cc(Cl)nn12 [Example 18]
17%	> 250 nM	–	CO[C@@H](C)c1c(NC(=O)Nc2cn3nc(C)nc3c(Br)c2C)cnc2cc(Cl)nn12 [Example 19]
16%	> 250 nM	–	CO[C@@H](C)c1c(NC(=O)Nc2ccc3nncn3c2)cnc2cc(Cl)nn12 [Example 20]
96%	> 250 nM	–	CO[C@@H](C)[C@@H](OC)c1c(NC(=O)Nc2cc(F)c3nc(C)nn3c2)cnc2cc(Cl)nn12 [Example 21]
62%	> 250 nM	–	COCc1c(NC(=O)Nc2cc(F)c3nc(C)nn3c2)cnc2cc(Cl)nn12 [Example 22]
98%	> 250 nM	–	Cc1nc2c(F)cc(NC(=O)Nc3cnc4cc(Cl)nn4c3C3(C(F)(F)F)CC3)cn2n1 [Example 23]
80%	51 to 250 nM	–	CO[C@@H](C)c1c(NC(=O)Nc2cc(F)c3nc(C)nn3c2)cnc2cc(F)nn12 [Example 24]
95%	< 50 nM	–	CO[C@@H](C)c1c(NC(=O)Nc2cc(F)c3nc(C)nn3c2)cnc2cc(Br)nn12 [Example 25]
71%	> 250 nM	–	CO[C@@H](C)c1c(NC(=O)Nc2cc(F)c3nc(C)nn3c2)cnc2cc(OC(F)F)nn12 [Example 26]
87%	51 to 250 nM	–	CO[C@@H](C)c1c(NC(=O)Nc2cc(F)c3ncnn3c2)cnc2cc(C(F)(F)F)nn12 [Example 27]
